# Patent publication US10501413B2, “Inhibitors of the Notch transcriptional activation complex and methods for use of the same” (UNIVERSITY OF MIAMI, priority 2015, dated 2019)
# How the values were obtained:
# [1] = target: T1, Notch transcriptional activation complex (CSL, Notch1, MAML1 on DNA) (Homo sapiens, UniProt P46531+Q06330); experiment: Notch complex assembly assay (ALPHASCREEN); assay type: biochemical
# T1 construct: the intracellular domain of Notch (“NICD”); made in house; host or cells: SF21 insect cells (baculovirus)
# T1 sequence (P46531 1754-2555 limits assumed): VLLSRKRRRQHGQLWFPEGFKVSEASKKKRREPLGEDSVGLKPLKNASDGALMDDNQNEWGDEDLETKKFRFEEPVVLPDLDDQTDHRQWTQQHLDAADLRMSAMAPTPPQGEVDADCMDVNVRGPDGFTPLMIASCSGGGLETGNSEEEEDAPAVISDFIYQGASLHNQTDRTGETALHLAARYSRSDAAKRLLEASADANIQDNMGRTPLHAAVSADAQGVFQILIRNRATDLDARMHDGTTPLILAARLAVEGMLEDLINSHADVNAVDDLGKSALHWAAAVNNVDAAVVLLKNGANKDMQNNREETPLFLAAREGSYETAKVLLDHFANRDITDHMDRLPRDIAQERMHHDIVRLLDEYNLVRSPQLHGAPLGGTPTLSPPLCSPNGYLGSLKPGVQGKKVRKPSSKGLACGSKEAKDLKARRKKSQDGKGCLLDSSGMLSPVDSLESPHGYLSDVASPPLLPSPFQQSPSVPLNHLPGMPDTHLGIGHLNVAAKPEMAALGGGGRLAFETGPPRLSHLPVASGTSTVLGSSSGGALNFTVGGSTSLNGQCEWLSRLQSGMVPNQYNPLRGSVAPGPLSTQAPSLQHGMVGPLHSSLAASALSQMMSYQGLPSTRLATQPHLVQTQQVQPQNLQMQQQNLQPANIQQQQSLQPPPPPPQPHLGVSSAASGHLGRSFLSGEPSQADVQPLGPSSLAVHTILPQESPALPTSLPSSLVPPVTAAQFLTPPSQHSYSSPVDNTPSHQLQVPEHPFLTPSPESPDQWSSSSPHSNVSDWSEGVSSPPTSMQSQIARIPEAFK
# T1 sequence (Q06330 whole entry, the tested form may be a part): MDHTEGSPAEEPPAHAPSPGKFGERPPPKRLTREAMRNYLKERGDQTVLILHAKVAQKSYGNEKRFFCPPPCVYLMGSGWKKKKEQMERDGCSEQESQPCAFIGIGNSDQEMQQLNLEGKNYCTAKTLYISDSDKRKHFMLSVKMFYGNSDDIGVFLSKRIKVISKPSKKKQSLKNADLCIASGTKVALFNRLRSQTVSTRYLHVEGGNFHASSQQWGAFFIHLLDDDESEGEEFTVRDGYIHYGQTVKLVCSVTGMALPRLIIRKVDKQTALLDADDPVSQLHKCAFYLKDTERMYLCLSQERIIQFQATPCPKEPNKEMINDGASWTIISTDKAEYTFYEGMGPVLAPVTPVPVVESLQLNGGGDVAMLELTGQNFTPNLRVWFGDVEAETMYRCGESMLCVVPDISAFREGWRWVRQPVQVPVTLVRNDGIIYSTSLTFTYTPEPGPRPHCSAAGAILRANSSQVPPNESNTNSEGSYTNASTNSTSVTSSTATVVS
# Excerpt: An in vitro assay was developed to monitor the assembly of the Notch transcriptional complex (“NTC”) on DNA. The NTC, which includes the Notch, Mastermind (“MAML1”), and CSL proteins, binds to a specific DNA sequence in a CSL-dependent manner. For the assay, baculovirus produced CSL, Notch, and MAML1 were mixed together with a biotinylated DNA oligomer containing the CSL target sequence. Assembly of the NTC on DNA was then monitored with the proximity-based ALPHASCREEN (Perkin Elmer) using streptavidin and protein A beads (FIGS. 1A and 1B). A signal results when MAML1 is recruited to CSL bound DNA.
# All recombinant proteins were expressed using baculovirus expression vectors in SF21 cells and purified. Unless otherwise stated, all assays contained 125 fmol of double stranded oligonucleotide, CSL, Notch1 and MAML1 proteins. Reactions were carried out in Tris-buffered saline with 0.1% Tween (“TBS-T”) buffer containing 0.2% bovine serum albumin (“BSA”) and 100 ug/mL salmon sperm DNA. Briefly, the Notch complex was assembled on a biotinylated double stranded (“DS”) oligonucleotide harboring one CSL binding site (5′-[…]-3′). Complex assembly was quantitated using ALPHASCREEN technology (Perkin Elmer). Proteins in the complexes were detected using specific antibodies to either MAML1 (Cell signaling, D3K7B), Notch1 (Abcam, 52627) or CSL (anti-His, Abcam 18184). Streptavidin conjugated acceptor beads (Perkin Elmer, 6760002) were used to bind the DS oligonucleotide, and Protein-A conjugated donor beads (Perkin Elmer, 6760137) were used to detect antibody-coated proteins. For screening compounds, Notch transcriptional activation complex (“NTC”) components were added to wells that already contained the inhibitor to be assayed and allowed to incubate for 30 minutes. The ALPHASCREEN plate (Perkin Elmer, 6008350) was then read on an Envision Plate reader (Perkin Elmer) as specified by the manufacturer.
# Determination of Equilibrium Dissociation Constants (KD) and Half Maximal Inhibitory Concentrations (IC50)
# [2] = system: NICD in OE33 and 786-0 cells; experiment: Western analysis of NICD levels; assay type: cell-based, human; settings: OE33 and 786-0 cell lysates
# Protocol: The effect of inhibitor treatment on the assembly of the NTC in cells was investigated.
# Protein analysis was carried out using conventional SDS-PAGE and transfer techniques. Blots were probed with the indicated antibody (“Ab”), using standard conditions, and detected using enhanced chemiluminescence (“ECL”). The following Ab were used: anti-Notch1 (ab52627, abcam), anti-Notch1^val1744 (4147S, Cell Signaling Technology) and anti-GAPDH (ab9483, Abcam).
# [3] = system: cancer cell lines (OE33, 786-0 and panel); experiment: Colony formation assay; assay type: cell-based, human; settings: for colony formation: 7 days
# Protocol: The effect of inhibitor treatment on Notch-target gene transcription also was investigated (FIGS. 2C and 2D). […] As proof of specificity, transcription of the housekeeping gene, HPRT, was unaltered in treated cells. To test the effects of Notch inhibition on proliferation, a colony formation assay was performed.
# To extend the analysis of tumor cell growth inhibition, several commonly used cancer cell lines were selected to test for sensitivity to Inhibitor No. 1-134-83 (FIGS. 3A and 3B). […] In this analysis, sensitivity to DAPT is taken to indicate specific inhibition of Notch activity. […] Cells that are refractory to DAPT were equally resistant to Inhibitor No. 1-134-83.
# Cells were plated into a 6 well plate at a density of 2000 cells/cm^2. Inhibitor treatment commenced 24 hours post seeding, and the media containing inhibitor was changed every 48 hours thereafter. After 168 hours, cells were fixed with ice cold methanol for 10 minutes, stained for 1 hour with crystal violet, de-stained with water, and allowed to dry.
# [4] = system: esophageal adenocarcinoma PDX tumors; experiment: Esophageal adenocarcinoma patient-derived xenograft (PDX); assay type: in vivo, mouse
# Protocol: The effect of the inhibitors of the disclosure on the growth of an established tumor also was investigated using two independent esophageal adenocarcinoma patient-derived xenograft (“PDX”) models. Tumors were established in NSG mice to the size of 250 mm^3 prior to the initiation of treatment. Mice were dosed daily via intraperitoneal (“IP”) injection with either Inhibitor No. 1-134-83 (15 mg/kg) or DAPT (20 mg/kg), and compared to DMSO vehicle control. […] Following 24 days of treatment, tumors were harvested and Notch-target gene transcription was evaluated. […] (FIG. 4) Six-week-old NOD-SCID gamma (“NSG”) mice were purchased from Jackson Laboratories and CD-1 Nude mice were purchased from Charles River Laboratories. For the cell line based xenografts assay, 5×10^6 OE19 cells in 200 μl serum-free culture medium were injected subcutaneously per mouse. The mice in the treatment group were injected with 15 mg/kg of Inhibitor No. 1-134-83 daily, and the mice in the control group were injected with the same volume of vehicle (DMSO). Subcutaneous tumor growth was measured once every 4 days using calipers along with body weight. The experiment was discontinued on day 28. PDX cancer models were established, as described in Zhang et al, Establishment of Patient-Derived Xenograft (PDX) Models of Human Breast Cancer, Current Protocols in Mouse Biology, 3:21-29 (2013), in NSG mice. Briefly, 10 mm^3 pieces of primary EAC29 PDX tumor were transplanted subcutaneously into the flanks of NSG mice using a 13G telescopic needle. When the tumors reached 200 mm^3, the mice were split into two uniform groups for treatment. Compound 1-134-83 (15 mg/kg) and vehicle were administered daily by inraperitoneal (“IP”) injection for 24 days. Tumor growth was monitored every 4 days and tumor volume was measured by the formula: Volume=(S×S×L)/2, where S and L are the short and long dimensions. The xenograft tumors were harvested, weighed and samples were subjected to histological examination and by qPCR.
compound,measurement,setting,value
CCOC(=O)COc1ccc(/C=C2\SC(=S)NC2=O)cc1OC [1-134-83],IC50,[1],26 µM
same,levels of NICD in cells,[2],does not change
same,colony formation,[3]; 786-0 and OE33 cells,dose-dependent reduction
same,effective concentration,[3]; cancer cell lines,5 µM
same,cellular toxicity,"[3]; cells refractory to DAPT, dose nearly 10× the effective concentration",did not induce any cellular toxicity
same,colony formation,"[3]; insensitive cell lines, high doses",do not show changes in colony formation ability
same,colony formation,[3]; sensitive (Notch dependent) cell lines,dose-dependent decrease in colony formation
same,weight loss or visible signs of stress,"[4]; NSG mice, 15 mg/kg daily IP",without any significant weight loss or other visible signs of stress
same,growth of established tumor,"[4]; NSG mice, two PDX models, daily IP, 1-134-83 15 mg/kg, DAPT 20 mg/kg",significantly stunted growth
same,decrease in tumor volume by the experimental endpoint,"[4]; PDX tumor, versus vehicle",three-fold
same,transcription of control gene (TBP2) in tumors,"[4]; treated PDX tumors, qPCR",unaffected
same,"level of Notch target genes (Hes1, HeyL, Notch3) in tumors","[4]; tumors harvested after 24 days of treatment, qPCR",dramatically reduced
